Measurements from patent US7695930B2, “Method for the detection, identification and/or quantification of microoganisms with peptidase activity using phenoxazinone derivatives as enzyme substrates” (Biomerieux, priority 2003, dated 2010).
One block for each compound: values may come before it.

What was measured:
Assay type in all cases: cell-based
Conditions in all cases: 50 mg/l
[1] = system: Staphylococcus epidermis (NCTC 11047); experiment: Alanine peptidase detection, substrates with one to three amino acids (Example 15); parameters: key to color of the colony: R=pink; RP=pale pink; I=colorless
Protocol: (§1) 1000 ml of Columbia medium was melted in a waterbath at 100° C. and autoclaved at 121° C. for 15 min. It was then cooled to 50° C. in a waterbath.
(§2) This medium was separated into 5 flasks of 200 ml, and then, added at 50° C., as substrates, was that of Example 2 for which A is: • medium 1: L-alanine (L-alanine-9-aminobenzo[a]phenoxazin-5-one or A-ABP), • medium 2: L-alanine-L-alanine (L-alanine-L-alanine-9-aminobenzo-[a]phenoxazin-5-one or AA-ABP), • medium 3: L-alanine-L-alanine-L-alanine (L-alanine-L-alanine-L-alanine-9-aminobenzo[a]phenoxazin-5-one or AAA-ABP), • medium 4: L-alanine-glycine (L-alanine-glycine-9-aminobenzo[a]phenoxazin-5-one or AG-ABP), and • medium 5: glycine-L-alanine (glycine-L-alanine-9-aminobenzo[a]phenoxazin-5-one or GA-ABP), each substrate being solubilized in DMSO and used at a final concentration of 50 mg/l.
(§3) The medium was then poured into Petri dishes.
(§4) Nine microorganism strains derived from the Applicant's collection, suspended in physiological saline, were seeded in colonies on the media prepared in point 15.1 above according to a multipoint inoculation in a proportion of 15 000 cfu/spot. The dishes were incubated at 37° C. for 48 hours. The colonies formed were examined visually after incubation for 24 and 48 hours.
(§5) The results are expressed in Tables 7 and 8 hereinafter according to the rules and the nomenclature stated in paragraph 11.3 and where R=pink, RP=pale pink and I=colorless.

[2] = system: Enterobacter clocae (NCTC 11936); experiment: as above; parameters: key to color of the colony: R=pink; RP=pale pink; I=colorless
Protocol: as §1, §2, §3, §4, §5

[3] = system: Escherichia coli (NCTC 10418); experiment: as above; parameters: key to color of the colony: R=pink; RP=pale pink; I=colorless
Protocol: as §1, §2, §3, §4, §5

[4] = system: Micrococcus luteus (NCTC611); experiment: as above; parameters: key to color of the colony: R=pink; RP=pale pink; I=colorless
Protocol: as §1, §2, §3, §4, §5

[5] = system: Pseudomonas aerigunosa (NCTC 10038); experiment: as above; parameters: key to color of the colony: R=pink; RP=pale pink; I=colorless
Protocol: as §1, §2, §3, §4, §5

[6] = system: Acinetobacter baumannii (ATCC 19606); experiment: as above; parameters: key to color of the colony: R=pink; RP=pale pink; I=colorless
Protocol: as §1, §2, §3, §4, §5

[7] = system: Staphylococcus aureus (NCTC 6571); experiment: as above; parameters: key to color of the colony: R=pink; RP=pale pink; I=colorless
Protocol: as §1, §2, §3, §4, §5

[8] = system: Listeria monocytogenes (NCTC 11994); experiment: as above; parameters: key to color of the colony: R=pink; RP=pale pink; I=colorless
Protocol: as §1, §2, §3, §4, §5

Enterococcus faecalis = experiment: Leucine-peptidase detection on agar medium (Example 11)
Protocol: (§6) The detection medium was prepared by mixing 1.4 g of biogelytone (bioMérieux), 0.84 g of meat extract (bioMérieux), 2.24 g of NaCl (Merck), 280 μl of a solution of IPTG (isopropylthio-β-D-galactopyranoside, BIOSYNTH) in water (concentration 10 g/l) and 4.2 g of European agar (bioMérieux).
(§7) The substrate of the invention obtained in Example 2, in which the amino acid is leucine (leucine-9-aminobenzo[a]phenoxazin-5-one or Leu-ABP), or else a substrate of the prior art, which is leucine-aminomethylcoumarin (Leu-AMC, BACHEM), was then added in the following way: 280 ml of osmosed water were added to the medium, and the mixture was melted in a waterbath at 100° C. The mixture was autoclaved for 15 min at 121° C. and cooled to 50° C. in a waterbath.
as §3
(§8) The coloration of these colonies, the diffusion, and also the intensity of this coloration were noted.
(§9) The results were expressed as intensity of coloration using an arbitrary scale ranging from 0 to 4 as a basis and also as diffusion also using an arbitrary scale ranging from 0 to 4 as a basis.

Escherichia coli = experiment: as above
Protocol: as §6, §7, §3, §8, §9

Citrobacter freundii = experiment: as above
Protocol: as §6, §7, §3, §8, §9

Pseudomonas aeruginosa = experiment: as above
Protocol: as §6, §7, §3, §8, §9

Candida albicans = experiment: as above
Protocol: as §6, §7, §3, §8, §9

Serratia marcescens = experiment: as above
Protocol: as §6, §7, §3, §8, §9

Klebsellia pneumoniae = experiment: as above
Protocol: as §6, §7, §3, §8, §9

Staphylococcus aureus = experiment: as above
Protocol: as §6, §7, §3, §8, §9

Enterobacter cloaccae = experiment: as above
Protocol: as §6, §7, §3, §8, §9

Compound: L-alanine-L-alanine-L-alanine-9-aminobenzo[a]phenoxazin-5-one [AAA-ABP]
color of the colony ([1]; 24 h): I
growth diameter ([1]; 24 h): 2 mm
color of the colony ([1]; 48 h): I
growth diameter ([1]; 48 h): 2 mm
color of the colony ([2]; 24 h): R
growth diameter ([2]; 24 h): 3 mm
color of the colony ([2]; 48 h): R
growth diameter ([2]; 48 h): 3 mm
color of the colony ([3]; 24 h): R
growth diameter ([3]; 24 h): 3 mm
color of the colony ([3]; 48 h): R
growth diameter ([3]; 48 h): 3 mm
color of the colony ([4]; 24 h): R
growth diameter ([4]; 24 h): 1 mm
color of the colony ([4]; 48 h): R
growth diameter ([4]; 48 h): 3 mm
color of the colony ([5]; 24 h): R
growth diameter ([5]; 24 h): 3 mm
color of the colony ([5]; 48 h): R
growth diameter ([5]; 48 h): 3 mm
color of the colony ([6]; 24 h): R
growth diameter ([6]; 24 h): 3 mm
color of the colony ([6]; 48 h): R
growth diameter ([6]; 48 h): 3 mm
color of the colony ([7]; 24 h): I
growth diameter ([7]; 24 h): 3 mm
color of the colony ([7]; 48 h): I
growth diameter ([7]; 48 h): 3 mm
color of the colony ([8]; 24 h): R
growth diameter ([8]; 24 h): 2 mm
color of the colony ([8]; 48 h): R
growth diameter ([8]; 48 h): 2 mm

Compound: L-alanine-glycine-9-aminobenzo[a]phenoxazin-5-one [AG-ABP]
color of the colony ([1]; 24 h): I
growth diameter ([1]; 24 h): 3 mm
color of the colony ([1]; 48 h): I
growth diameter ([1]; 48 h): 3 mm
color of the colony ([2]; 24 h): R
growth diameter ([2]; 24 h): 3 mm
color of the colony ([2]; 48 h): R
growth diameter ([2]; 48 h): 3 mm
color of the colony ([3]; 24 h): R
growth diameter ([3]; 24 h): 3 mm
color of the colony ([3]; 48 h): R
growth diameter ([3]; 48 h): 3 mm
color of the colony ([4]; 24 h): I
growth diameter ([4]; 24 h): 1 mm
color of the colony ([4]; 48 h): R
growth diameter ([4]; 48 h): 3 mm
color of the colony ([5]; 24 h): RP
growth diameter ([5]; 24 h): 3 mm
color of the colony ([5]; 48 h): R
growth diameter ([5]; 48 h): 3 mm
color of the colony ([6]; 24 h): RP
growth diameter ([6]; 24 h): 3 mm
color of the colony ([6]; 48 h): R
growth diameter ([6]; 48 h): 3 mm
color of the colony ([7]; 24 h): I
growth diameter ([7]; 24 h): 3 mm
color of the colony ([7]; 48 h): I
growth diameter ([7]; 48 h): 3 mm
color of the colony ([8]; 24 h): I
growth diameter ([8]; 24 h): 2 mm
color of the colony ([8]; 48 h): I
growth diameter ([8]; 48 h): 3 mm

growth diameter (Enterococcus faecalis; 24 h): 0.4 mm
intensity of coloration, scale 0 to 4 (Enterococcus faecalis; 24 h): 0.5
growth diameter (Enterococcus faecalis; 48 h): 0.4 mm
intensity of coloration, scale 0 to 4 (Enterococcus faecalis; 48 h): 1.5
growth diameter (Citrobacter freundii; 24 h): 0.8 mm
intensity of coloration, scale 0 to 4 (Citrobacter freundii; 24 h): 3
growth diameter (Citrobacter freundii; 48 h): 1 mm
intensity of coloration, scale 0 to 4 (Citrobacter freundii; 48 h): 3
growth diameter (Pseudomonas aeruginosa; 24 h): 2 mm
intensity of coloration, scale 0 to 4 (Pseudomonas aeruginosa; 24 h): 1
growth diameter (Pseudomonas aeruginosa; 48 h): 2 mm
intensity of coloration, scale 0 to 4 (Pseudomonas aeruginosa; 48 h): 3
growth diameter (Serratia marcescens; 24 h): 0.5 mm
intensity of coloration, scale 0 to 4 (Serratia marcescens; 24 h): 2
growth diameter (Serratia marcescens; 48 h): 0.7 mm
intensity of coloration, scale 0 to 4 (Serratia marcescens; 48 h): 3
growth diameter (Klebsellia pneumoniae; 24 h): 1.8 mm
intensity of coloration, scale 0 to 4 (Klebsellia pneumoniae; 24 h): 3
growth diameter (Klebsellia pneumoniae; 48 h): 1.8 mm
intensity of coloration, scale 0 to 4 (Klebsellia pneumoniae; 48 h): 3
growth diameter (Enterobacter cloaccae; 24 h): 0.8 mm
intensity of coloration, scale 0 to 4 (Enterobacter cloaccae; 24 h): 3
growth diameter (Enterobacter cloaccae; 48 h): 0.8 mm
intensity of coloration, scale 0 to 4 (Enterobacter cloaccae; 48 h): 3
Compound: Cc1cc(=O)oc2cc(NC(=O)[C@@H](N)CC(C)C)ccc12 [Leu-AMC, leucine-aminomethylcoumarin, reference compound]
growth diameter (Escherichia coli; 24 h): 1.8 mm
intensity of coloration, scale 0 to 4 (Escherichia coli; 24 h): 3
growth diameter (Escherichia coli; 48 h): 1.8 mm
intensity of coloration, scale 0 to 4 (Escherichia coli; 48 h): 3
growth diameter (Candida albicans; 24 h): 0.4 mm
intensity of coloration, scale 0 to 4 (Candida albicans; 24 h): 0.25
growth diameter (Candida albicans; 48 h): 0.5 mm
intensity of coloration, scale 0 to 4 (Candida albicans; 48 h): 1.5
growth diameter (Staphylococcus aureus; 24 h): 1.7 mm
intensity of coloration, scale 0 to 4 (Staphylococcus aureus; 24 h): 2.5
growth diameter (Staphylococcus aureus; 48 h): 1.7 mm
intensity of coloration, scale 0 to 4 (Staphylococcus aureus; 48 h): 3

Compound: glycine-L-alanine-9-aminobenzo[a]phenoxazin-5-one [GA-ABP]
color of the colony ([1]; 24 h): I
growth diameter ([1]; 24 h): 1 mm
color of the colony ([1]; 48 h): I
growth diameter ([1]; 48 h): 2 mm
color of the colony ([2]; 24 h): R
growth diameter ([2]; 24 h): 3 mm
color of the colony ([2]; 48 h): R
growth diameter ([2]; 48 h): 3 mm
color of the colony ([3]; 24 h): R
growth diameter ([3]; 24 h): 3 mm
color of the colony ([3]; 48 h): R
growth diameter ([3]; 48 h): 3 mm
growth diameter ([4]; 24 h): 0 mm
growth diameter ([4]; 48 h): 0 mm
color of the colony ([5]; 24 h): RP
growth diameter ([5]; 24 h): 3 mm
color of the colony ([5]; 48 h): R
growth diameter ([5]; 48 h): 3 mm
color of the colony ([6]; 24 h): R
growth diameter ([6]; 24 h): 3 mm
color of the colony ([6]; 48 h): R
growth diameter ([6]; 48 h): 3 mm
color of the colony ([7]; 24 h): I
growth diameter ([7]; 24 h): 3 mm
color of the colony ([7]; 48 h): I
growth diameter ([7]; 48 h): 3 mm
color of the colony ([8]; 24 h): I
growth diameter ([8]; 24 h): 2 mm
color of the colony ([8]; 48 h): R
growth diameter ([8]; 48 h): 2 mm

Compound: L-alanine-L-alanine-9-aminobenzo-[a]phenoxazin-5-one [AA-ABP]
color of the colony ([1]; 24 h): I
growth diameter ([1]; 24 h): 2 mm
color of the colony ([1]; 48 h): I
growth diameter ([1]; 48 h): 2 mm
color of the colony ([2]; 24 h): R
growth diameter ([2]; 24 h): 3 mm
color of the colony ([2]; 48 h): R
growth diameter ([2]; 48 h): 3 mm
color of the colony ([3]; 24 h): R
growth diameter ([3]; 24 h): 3 mm
color of the colony ([3]; 48 h): R
growth diameter ([3]; 48 h): 3 mm
growth diameter ([4]; 24 h): 0 mm
growth diameter ([4]; 48 h): 0 mm
color of the colony ([5]; 24 h): R
growth diameter ([5]; 24 h): 3 mm
color of the colony ([5]; 48 h): R
growth diameter ([5]; 48 h): 3 mm
color of the colony ([6]; 24 h): R
growth diameter ([6]; 24 h): 3 mm
color of the colony ([6]; 48 h): R
growth diameter ([6]; 48 h): 3 mm
color of the colony ([7]; 24 h): I
growth diameter ([7]; 24 h): 3 mm
color of the colony ([7]; 48 h): I
growth diameter ([7]; 48 h): 2 mm
color of the colony ([8]; 24 h): R
growth diameter ([8]; 24 h): 2 mm
color of the colony ([8]; 48 h): R
growth diameter ([8]; 48 h): 2 mm
